Measurements as given in PMC3633906, “A High Throughput Screen for RGS Proteins Using Steady State Monitoring of Free Phosphate Formation” (PLoS ONE, 2013).
Structures can show the parent of a compound that is named as a salt. Where two headings read alike, the source gives them in different places.

Key:
[1] = target: T1, RGS4(WT) (Rattus norvegicus, UniProt P49799); assay: Malachite green steady-state GAP assay, RGS4(WT); format: biochemical; conditions: for Mean absorbance at 642 nm, positive control: 10 µM final compound
T1 construct: fused to the N-terminus of an RGS4 construct containing amino acids 51–205; 10× His tag (N, cleaved yes); made in house; host or cells: E. coli BL21-DE3
T1 sequence (P49799 51-205): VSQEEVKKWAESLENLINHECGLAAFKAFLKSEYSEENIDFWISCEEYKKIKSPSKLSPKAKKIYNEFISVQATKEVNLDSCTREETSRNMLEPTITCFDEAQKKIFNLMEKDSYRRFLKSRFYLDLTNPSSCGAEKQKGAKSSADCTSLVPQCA
Description: Stock solutions of each of the 3 components of the developing solution were prepared, which are stable for long-term storage. Malachite solution was prepared by first diluting concentrated sulfuric acid 1∶5 in distilled water. Once the solution cooled to 25°C, malachite solution was prepared by dissolving 0.44 g of malachite green oxalate (Alfa Aesar; Ward Hill, MA) in 360 mL diluted acid and stored at 25°C. Molybdate solution, containing 7.5% ammonium molybdate tetrahydrate (Alfa Aesar; Ward Hill, MA), was prepared in distilled water and stored at 4°C. Tween-20 solution, used to maintain solubility of the phosphate-molybdate-malachite complex, was prepared as 11% (v/v) Tween-20 in distilled water. On the day of use, 2.5 mL molybdate solution and 0.2 mL Tween-20 solution were added to 10 mL of malachite solution and mixed quickly to avoid precipitation of malachite. The final ratio of the Developing Solution (DS) was 50∶12.5∶1 (malachite:molybdate:Tween-20). The peak absorbance was determined by a 2 nm step wavelength scan, using 10 µM Na3PO4 at pH 7.5 as the negative control.
The malachite green assay involves 5 components, with a 1 min spin at 100×g between each addition. For time-course experiments, the first component was 10 µL Malachite Green Assay Buffer (MGB; 50 mM HEPES at pH 7.5, 100 mM NaCl, 5 mM EDTA, 10 mM MgCl2, 0.01% lubrol) into a clear 384-well plate (ThermoFisher Scientific; Waltham, MA) using a MultiDrop dispenser (PerkinElmer; Waltham, MA). The second component dispensed was 10 µL of a 4× stock of RGS4, typically 200 nM to 1.6 µM with the target final concentration of 50 nM to 400 nM, diluted in MGB. After a 30 min incubation, 10 µL of the third component, 4× stock of Gαi diluted in MGB, was dispensed (typically between 4 µM and 80 µM with a desired final concentration 1 µM to 20 µM). After a minimum of 5 min incubation, 10 µL of the fourth component, 4× GTP diluted in MGB, was added at 10 minute intervals from 1–110 minutes. The 0 min time point was excluded due to amount of time required to proceed from GTP addition to quenching with DS. 4× GTP concentrations varied between 0.2 mM and 2.4 mM, with a target final concentration of 50 µM to 600 µM. To terminate the reaction, 10 µL of DS was added to each well using a Microlab Star liquid handling robot (Hamilton Robotics; Reno, NV), to achieve a final ratio 4∶1 (sample:developing solution). Following the spin, the plate was incubated for 25 min before being read at 642 nm for absorbance using an EnVision plate reader (PerkinElmer; Waltham, MA). RGS8 was evaluated similarly to as described for RGS4, with 4× stock concentrations from 20 nM and 800 nM. For each time-course, corresponding GTP only wells were included to account for spontaneous hydrolysis of GTP over time.
(§1) Malachite green compound activity and Z-factor analysis conducted in 384-well plates utilized optimized parameters as discerned from the time-course experiments. 10 µL of 4× compound or MGB was dispensed into appropriate wells. For single point assay, 160 µM compound was used, and for dose-response assays a series of ½ log dilutions from 100 µM final to 316pM final was used. 10 µL of the optimized 4× RGS4 concentration, 0.8 µM in MGB, was dispensed into all wells. After a spin down at 100×g for 1 min, the assay plate was incubated at 25°C for 30 min. 10 µL of the optimized Gαi concentration, 20 µM in MGB, was dispensed to each well and incubated at 25°C for 5 min. 10 µL of the optimized 4× GTP, 600 µM in MGB, was then added to the samples. After spinning the samples down at 100×g for 1 min, the samples were incubated at 25°C for 75 min. The samples were then stamped with 10 µL of DS and incubated for 25 min before reading absorbance at 642 nm.
1536-well Z-factor analysis and compound library screen were accomplished largely as described for 384-well plates. Initial screen and Z-factor determination was performed in a final concentration of 5.5% dimethylsulfoxide. […]

[2] = target: RGS4(Δ7) mutant (Rattus norvegicus, UniProt P49799, C132A/C148A/C183A/C197A/C204A/C71A/C95A); assay: Malachite green steady-state GAP assay, cysteine-null RGS4(Δ7) counter screen; format: biochemical
Text: Rat RGS4, sharing 97% sequence identity with human RGS4, and the cysteine to alanine mutant were expressed as fusion proteins of maltose binding protein (MBP), a 10× His tag, and a TEV protease recognition site fused to the N-terminus of an RGS4 construct containing amino acids 51–205, in the vector pMALC2H10T in BL21-DE3 E. coli (Stratagene; Santa Clara, CA). The single cysteine-null Δ51-RGS4 construct was generated by site-directed mutagenesis as described previously. Expression and purification were performed as described previously. Purified protein was incubated with TEV protease at a molar ratio of 10∶1(fusion protein:TEV protease) overnight at 4°C. The cleaved Δ51-RGS4 was then isolated by purification over an ANX column (GE Healthcare; Fairfield, CT) in 50 mM HEPES at pH 6.8 and 50 mM NaCl. The flow through, containing the ∼99% Δ51-RGS4 as determined by SDS-PAGE gel, was then collected and concentrated using a YM-10 centrifugal concentrator (Millipore; Billerica, MA). The concentration of Δ51-RGS4 was calculated based on the absorbance at 280 nm utilizing a Take-3 plate (Biotek; Winnoski, VT) in a Synergy 2 plate reader (Biotek; Winnoski, VT).
as §1
Data was analyzed using Prism analysis software (Graphpad Software; La Jolla, CA). Initial malachite green assay optimization was accomplished by comparing the fit of both straight line and hyperbolic functions. The fit that mostly closely resembled the data was used to represent the data. IC50 values for each compound were determined by fitting the data to a sigmoidal curve, which was used to calculate the IC50 value.

[3] = parameters: method as in PMID 20700722, PMID 21088503; conditions: rodent models; cited from earlier work
[4] = malachite green assay, RGS4(Δ7) mutant, concentration-response, read-out: IC50 against RGS4(Δ7)

Chain of RGS4(Δ7) mutant (P49799 51-205 C71A/C95A/C132A/C148A/C183A/C197A/C204A limits assumed): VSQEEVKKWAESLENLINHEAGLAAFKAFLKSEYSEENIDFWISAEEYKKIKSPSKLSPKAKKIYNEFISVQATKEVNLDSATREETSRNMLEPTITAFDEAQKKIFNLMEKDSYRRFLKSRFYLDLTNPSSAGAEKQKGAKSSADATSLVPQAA

Structure (SMILES)	IC50 [1] [µM]	IC50 [2] [µM]	IC50 [2, 4] [µM]	Inhibition of RGS4 (in words) ([1]; malachite green assay)	Inhibition of RGS4(Δ7) (in words) ([2]; malachite green assay)	other results
CC1=C(O)C(=O)C=C2C1=CC=C1[C@@]2(C)CC[C@@]2(C)[C@@H]3C[C@](C)(C(=O)O)CC[C@]3(C)CC[C@]12C [UI-1590, celastrol]	0.724	88	–	–	–	Toxicity in vivo [3]: minor toxicity
Cc1ccc(-n2sc(=O)n(Cc3ccc(F)cc3)c2=O)cc1 [CCG-50014, reference compound]	–	–	–	–	–	Mean absorbance at 642 nm, positive control ([1]; 384-well plate, 192 wells, negative control (buffer) mean 1.74): 0.92; Mean absorbance at 642 nm, positive control ([1]; 1536-well plate, 5.5% DMSO, 128 wells, negative control (buffer) mean 0.67): 0.30
C[n+]1cc2c3c(ccc2c2ccc4cc5c(cc4c21)OCO5)OCO3 [UI-5, sanguinarium sulfate]	–	–	454	–	–	IC50 ([1]; malachite green assay, 200 nM RGS4, concentration-response, read-out: IC50 against RGS4(WT)): 126 µM
CC(=O)Oc1c2c(c(CC=C(C)C)c3c1C(=O)C1=C[C@@H]4CC5C(C)(C)OC(C/C=C(\C)C(=O)O)(C4=O)[C@@]15O3)OC(C)(CCC=C(C)C)C=C2 (some centres unmarked) [UI-2034, acetyl-isogambogic acid]	–	–	181	weak inhibitors	weak inhibitors	–
CC(C)=CCC[C@]1(C)C=Cc2c(O)c3c(c(CC=C(C)C)c2O1)O[C@]12C(=C[C@@H]4C[C@H]1C(C)(C)O[C@@]2(C/C=C(/C)C(=O)O)C4=O)C3=O [UI-1907, gambogic acid]	16	51	–	weak inhibitors	weak inhibitors	–
